Assay results: patent US10596151B2, “Methods and pharmaceutical compositions for reducing arterial stiffness with a combination of a therapeutic agent blocking the angiotensin receptor and a therapeutic agent inhibiting the NEP enzyme” (Novartis AG, priority 2015, dated 2020)
Marks after values point to notes of the source that are not given here.

Legend:
[1] = test system: elderly patients (≥60 years) with essential hypertension; assay: […] study: 24-hour ambulatory brachial and central blood pressure (Mobil-O-Graph); type: in vivo, human; details: for Change from baseline to 12 weeks, macDBP / Change from baseline to 52 weeks, macDBP: mean ambulatory central diastolic BP; for Change from baseline to 12 weeks, macDBP / Change from baseline to 52 weeks, macDBP / Change from baseline to 12 weeks, macMAP / Change from baseline to 52 weeks, macMAP / Change from baseline to 12 weeks, macPP / Change from baseline to 52 weeks, macPP / Change from baseline to 12 weeks, maMAP / Change from baseline to 52 weeks, maMAP: mean; for Change from baseline to 12 weeks, macMAP / Change from baseline to 52 weeks, macMAP: mean ambulatory central mean arterial pressure; for Change from baseline to 12 weeks, macPP / Change from baseline to 52 weeks, macPP: mean ambulatory central pulse pressure; for Change from baseline to 12 weeks, macSBP / Change from baseline to 52 weeks, macSBP: mean ambulatory central systolic BP; for Change from baseline to 12 weeks, maDBP / Change from baseline to 52 weeks, maDBP: mean ambulatory diastolic BP; for Change from baseline to 12 weeks, maMAP / Change from baseline to 52 weeks, maMAP: mean ambulatory mean arterial pressure; for Change from baseline to 12 weeks, maPP / Change from baseline to 52 weeks, maPP: mean ambulatory pulse pressure; for Change from baseline to 12 weeks, maSBP / Change from baseline to 52 weeks, maSBP: mean ambulatory systolic BP
Source text: The study enrolled patient from 5 Dec. 2012 to 8 Apr. 2015.
The 24-hour maCAP and maPWA will be monitored using the oscillometric device, Mobil-0-Graph (IEM, Stolberg, Germany) with integrated ARC solver algorithms (Austrian Institute of Technology, Vienna, Austria). The traditional Mobil-O-Graph ambulatory blood pressure monitoring (ABPM) device has been available for more than a decade and through several product generations.24-27 The actual blood pressure measuring unit was validated according to the British Hypertension Society (BHS) and the European Society of Hypertension (ESH) recommendations.24,26 The method equipped with a GTF to derive aortic pressure waveforms28 is based on brachial readings acquired in the course of the conventional pressure measurement at diastolic level.
During the signal acquisition procedure, the received raw signals are separated into single waves and checked for their plausibility by means of extreme values and corresponding wavelengths using a cross-correlation approach. Poor waveforms are removed from further processing. After applying the GTF to each single waveform, the procedure is repeated.
With respect to legal issues, the Mobil-O-Graph maPWA monitor with integrated ARC solver algorithms holds approvals from CE, FDA, and JPAL (amongst others).

[2] = test system: patients with mild-to-moderate essential hypertension; details: LCZ696 100, 200 and 400 mg once daily; cited from earlier work
[3] = test system: patients with heart failure with preserved ejection fraction; details: cited from earlier work
[4] = LCZ696 regimen vs olmesartan regimen, 12 weeks, P < 0.001
[5] = LCZ696 regimen vs olmesartan regimen, 52 weeks

| Structure (SMILES) | Change from baseline to 12 weeks, macDBP ([1]; 12 weeks) [mmHg] | Change from baseline to 52 weeks, macDBP ([1]; 52 weeks) [mmHg] | Change from baseline to 12 weeks, macMAP ([1]; 12 weeks) [mmHg] | Change from baseline to 52 weeks, macMAP ([1]; 52 weeks) [mmHg] | Change from baseline to 12 weeks, macPP ([1]; 12 weeks) [mmHg] | Change from baseline to 52 weeks, macPP ([1]; 52 weeks) [mmHg] | Change from baseline to 12 weeks, macSBP ([1]; 12 weeks) [mmHg] | Change from baseline to 52 weeks, macSBP ([1]; 52 weeks) [mmHg] | Change from baseline to 12 weeks, maDBP ([1]; 12 weeks) [mmHg] | Change from baseline to 52 weeks, maDBP ([1]; 52 weeks) [mmHg] | Change from baseline to 12 weeks, maMAP ([1]; 12 weeks) [mmHg] | Change from baseline to 52 weeks, maMAP ([1]; 52 weeks) [mmHg] | Change from baseline to 12 weeks, maPP ([1]; 12 weeks) [mmHg] | Change from baseline to 52 weeks, maPP ([1]; 52 weeks) [mmHg] | Change from baseline to 12 weeks, maSBP ([1]; 12 weeks) [mmHg] | Change from baseline to 52 weeks, maSBP ([1]; 52 weeks) [mmHg] | further results |
| --- | --- | --- | --- | --- | --- | --- | --- | --- | --- | --- | --- | --- | --- | --- | --- | --- | --- |
| CCCc1nc(C(C)(C)O)c(C(=O)O)n1Cc1ccc(-c2ccccc2-c2nnn[nH]2)cc1 [Olmesartan, reference compound] | −5.8 | −9.1 | −6.75 | −10.6 | −2.9 | −4.6 | −8.7 | −13.7 | −5.5 | −8.4 | −7.1 | −11.1 | −3.7 | −5.9 | −9.1 | −14.3 |  |
| CCCCC(=O)N(Cc1ccc(-c2ccccc2-c2nn[n-]n2)cc1)C(C(=O)[O-])C(C)C.CCCCC(=O)N(Cc1ccc(-c2ccccc2-c2nn[n-]n2)cc1)C(C(=O)[O-])C(C)C.CCOC(=O)C(C)CC(Cc1ccc(-c2ccccc2)cc1)NC(=O)CCC(=O)[O-].CCOC(=O)C(C)CC(Cc1ccc(-c2ccccc2)cc1)NC(=O)CCC(=O)[O-].O.O.O.O.O.[Na+].[Na+].[Na+].[Na+].[Na+].[Na+] [LCZ696, trisodium [3-((1S,3R)-1-biphenyl-4-ylmethyl-3-ethoxycarbonyl-1-butylcarbamoyl) propionate-(S)-3′-methyl-2′-(pentanoyl{2″-(tetrazol-5-ylate)biphenyl-4′-ylmethyl}amino)butyrate]hemipentahydrate] | −7.5 | −9.0 | −9.0 | −10.33 | −4.4 | −4.1 | −12.1 | −13.0 | −7.4 | −8.8 | −10.0 | −11.2 | −5.8 | −5.3 | −13.2 | −14.1 | Between-treatment difference, maDBP, 12 weeks [1, 4]: −2.0 (0.51)* mmHg; Between-treatment difference, maPP, 12 weeks [1, 4]: −2.1 (0.49)* mmHg; Between-treatment difference, maSBP, 12 weeks [1, 4]: −4.1 (0.87)* mmHg; Between-treatment difference, macSBP, 12 weeks [1, 4]: −3.4 (0.84)* mmHg; Between-treatment difference, maDBP, 52 weeks [1, 5]: −0.4 (0.48) mmHg; Between-treatment difference, maPP, 52 weeks [1, 5]: 0.6 (0.50) mmHg; Between-treatment difference, maSBP, 52 weeks [1, 5]: 0.2 (0.82) mmHg; Between-treatment difference, macSBP, 52 weeks [1, 5]: 0.6 (0.79) mmHg; 24-hour ambulatory SBP compared to olmesartan ([1]; after 12-week monotherapy): lowered 24-hour ambulatory SBP compared to olmesartan; BP reductions vs corresponding doses of valsartan alone (160 and 320 mg) [2]: greater BP reductions than corresponding doses of valsartan alone; tolerability [2]: well tolerated; reduction of NT-proBNP vs valsartan alone ([3]; at 12 weeks): to a greater extent than valsartan alone; tolerability ([3]; heart failure with preserved ejection fraction): well tolerated |
